From publication PMC8146980, “An Arrhythmic Mutation E7K Facilitates TRPM4 Channel Activation via Enhanced PIP2 Interaction” (Cells, 2021) come the findings set out here.

Assay [1] has as its target T1, TRPM4 (TRPM4b) (Homo sapiens, UniProt Q8TD43, E7K).
T1 construct: full-length human TRPM4b CDS subcloned into pcI-neo, expressed in HEK293 cells (original clone in pcDNA4TO-Flag); homotetramer (known biology)
Nature of the assay: inside-out patch clamp, HEK293, reactivation after desensitization, Hill fit. Type of assay: cell-based. The following applies: read-out: apparent EC50; Kd (abstract). (Patch clamp records ionic current or voltage across a cell membrane.)

In assay [2] the target is T2, TRPM4 (TRPM4b) (Homo sapiens, UniProt Q8TD43).
T2 construct: full-length human TRPM4b CDS subcloned into pcI-neo, expressed in HEK293 cells (original clone in pcDNA4TO-Flag); homotetramer (known biology)
The assay is described as above. The conditions noted are these: read-out: apparent EC50; Kd (abstract). It is filed as cell-based.

T1 sequence (Q8TD43 whole entry E7K): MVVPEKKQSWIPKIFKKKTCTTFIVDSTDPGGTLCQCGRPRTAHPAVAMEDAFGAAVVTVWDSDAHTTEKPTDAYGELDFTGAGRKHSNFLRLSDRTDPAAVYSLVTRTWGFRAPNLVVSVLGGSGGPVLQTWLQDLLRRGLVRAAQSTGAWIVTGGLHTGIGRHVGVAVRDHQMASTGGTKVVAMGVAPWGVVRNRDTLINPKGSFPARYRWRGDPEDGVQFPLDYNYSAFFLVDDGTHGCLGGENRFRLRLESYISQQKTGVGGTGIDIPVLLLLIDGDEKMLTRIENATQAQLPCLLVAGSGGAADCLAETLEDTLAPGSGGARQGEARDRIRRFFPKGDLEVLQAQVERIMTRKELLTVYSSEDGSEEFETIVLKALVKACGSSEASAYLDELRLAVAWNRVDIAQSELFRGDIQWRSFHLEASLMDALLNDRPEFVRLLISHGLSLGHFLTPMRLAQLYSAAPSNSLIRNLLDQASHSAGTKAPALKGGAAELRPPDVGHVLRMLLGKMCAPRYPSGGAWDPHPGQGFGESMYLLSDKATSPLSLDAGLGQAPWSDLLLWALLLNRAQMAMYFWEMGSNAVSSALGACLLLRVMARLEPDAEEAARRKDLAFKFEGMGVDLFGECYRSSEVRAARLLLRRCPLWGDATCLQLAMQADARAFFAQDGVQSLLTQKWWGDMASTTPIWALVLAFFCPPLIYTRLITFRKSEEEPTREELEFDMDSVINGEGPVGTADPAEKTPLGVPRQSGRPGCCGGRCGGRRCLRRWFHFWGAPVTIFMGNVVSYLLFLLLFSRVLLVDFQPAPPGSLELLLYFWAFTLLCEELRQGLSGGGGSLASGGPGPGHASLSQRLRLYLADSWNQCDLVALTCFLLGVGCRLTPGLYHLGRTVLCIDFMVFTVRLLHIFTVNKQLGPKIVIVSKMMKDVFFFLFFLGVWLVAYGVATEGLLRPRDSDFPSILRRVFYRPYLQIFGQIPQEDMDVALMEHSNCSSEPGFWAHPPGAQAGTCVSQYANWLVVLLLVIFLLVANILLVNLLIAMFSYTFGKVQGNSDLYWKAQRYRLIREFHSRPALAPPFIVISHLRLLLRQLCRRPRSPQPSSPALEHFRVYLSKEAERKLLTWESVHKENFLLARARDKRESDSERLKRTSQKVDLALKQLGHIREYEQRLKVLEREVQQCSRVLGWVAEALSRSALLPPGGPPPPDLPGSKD
T2 sequence (Q8TD43 whole entry): as the sequence (Q8TD43 whole entry E7K) above, with K7E counted along it

With `CCCCCCCC(=O)OC[C@H](COP(=O)(O)O[C@@H]1[C@H](O)[C@H](O)[C@@H](OP(=O)(O)O)[C@H](OP(=O)(O)O)[C@H]1O)OC(=O)CCCCCCC` [diC8-PI(4,5)P2], the 50% effective concentration (EC50) (as a rule, the concentration giving half of the maximal effect) is 1.44 ± 0.2 µM in assay [1] and 2.4 ± 0.23 µM in assay [2].
